Reference: patent US6417186B1, “Substituted-phenyl ketone derivatives as IP antagonists” (Syntex (U.S.A.) LLC, priority 2000, dated 2002)

Compound	melting point
O=C(CCc1ccc(NC2=NCCN2)cc1)c1ccc(N2CCOCC2)cc1 [Example 3, 3-[4-(4,5-Dihydro-1H-imidazol-2-ylamino)phenyl]-1-(4-morpholin-4-ylphenyl)-propan-1-one]	196 to 197.6 °C
CCOC(=O)N1CCN(c2ccc(C(=O)CCc3ccc(NC4=NCCN4)cc3)cc2)CC1 [Example 5, 3-[4-(4,5-Dihydro-1H-imidazol-2-ylamino)phenyl]-1-[4-(4-ethoxycarbonyl-piperazin-1-yl)phenyl]propan-1-one]	150 to 151.2 °C
